This test concerns BaF3 V617F cells; UKE-1. The test is described as follows: Proliferation Assay (Cell Titer-Glo; Example 7). The class given is cell-based. The following applies: proliferation 72 hours, inhibit JAK2 activity, cell line (BaF3 V617F or UKE-1) not stated. Here is the method: BaF3 V617F cells are maintained and plated in RPMI with 10% FBS. Plating density for these cells is 1×10^5 cells/mL.
UKE-1 are maintained and plated in Iscove's DMEM containing 10% FBS, 10% equine serum, 1% penicillin/streptomycin and 1 uM hydrocortisone. Plating density for these cells is 0.4×10^6 cells/mL
The cells were resuspended in a corresponding medium at a required cell density (see above). 100μ of cell suspension was added to each well of a flat bottom 96 well white plate. The compound was serially diluted in DMSO from 5 mM in 3-fold dilutions, and then diluted 1:250 in the RPMI 1640 medium containing 5% FBS and pen/strep. 100 μL of resulting 2× compound solution was added per well in duplicate and the cells were allowed to proliferate for 72 hours at 37° C.
Proliferation was measured using Cell Titer-Glo. The substrate was thawed and allowed to come to room temperature. After removal of top 100 μL of medium from each well, 100 μL of the premixed Cell Titer-Glo reagent was added to each well. The plates were mixed on an orbital shaker for three minutes to induce lysis and incubated at ambient temperature for an additional five minutes to allow the signal to equilibrate. The Luminescence was read on the Wallac Plate Reader.
The results of the ability of the compounds of the invention to inhibit JAK2 activity, when tested in the above assay, are shown in the following Table XI wherein the level of activity (i.e., the IC50) for each compound is indicated in Table XI. The compound numbers in Table XI refers to the compounds disclosed herein as being prepared by the methods disclosed herein: […]
What is called IC50 is the concentration at which inhibition is half-maximal. Low values mean higher potency, high ones lower potency. Consider `CN1CCC(c2ccc(Nc3ncc(Cl)c(Nc4cccc(CNS(=O)(=O)C5CC5)c4)n3)cc2)CC1` [II-190, 5-Chloro-N4-[3-(N-cyclopropylsulfonylaminomethyl)phenyl]-N2-[4-(N-methylpiperidin-4-yl)phenyl]-2,4-pyrimidinediamine], for which half-maximal inhibition (IC50) required 701 nM.
In turn, `Cc1cnc(Nc2ccc(N3CCN(C)CC3)cc2)nc1Nc1ccc(CNS(=O)(=O)NC2CC2)cc1` [II-171, N4-[4-((N-Cyclopropylamino)sulfonylamino)methylphenyl]-5-methyl-N2-[4-(4-methyl-1-piperazinyl)phenyl]-2,4-pyrimidinediamine] returned an IC50 of 735 nM.
Take `COc1c(C)cc(Nc2ncc(C)c(Nc3ccc(CNS(=O)(=O)NC4CC4)cc3)n2)cc1C` [II-162, N4-[4-((N-Cyclopropylamino)sulfonylamino)methylphenyl]-N2-(3,5-dimethyl-4-methoxyphenyl)-5-methyl-2,4-pyrimidinediamine]: the IC50 was 134 nM.
On to `COc1cc(Nc2ncc(Cl)c(Nc3ccc(CNS(=O)(=O)N(C)C)cc3)n2)cc(Cl)c1OC` [II-92, 5-Chloro-N2-(3-chloro-4,5-dimethoxyphenyl)-N4-[(4-(dimethylamino)sulfonylamino)methylphenyl]-2,4-pyrimidinediamine], for which the IC50 turned out to be 558 nM.
On to `Cc1cc(Nc2ncc(Cl)c(Nc3ccc(CNS(N)(=O)=O)cc3)n2)ccc1N1CCN(C)CC1` [II-149, N4-[4-(Aminosulfonylamino)methylphenyl]-5-chloro-N2-[3-methyl-4-(4-methyl-1-piperazinyl)phenyl]-2,4-pyrimidinediamine], for which the IC50 is 1040 nM.
Turning to `Cc1cnc(Nc2ccc(N3CCN(C4CC5CCC4C5)CC3)c(F)c2)nc1Nc1ccc(CNS(=O)(=O)C2CC2)cc1` (stereo not drawn) [II-78, N-(4-(2-(4-(4-(bicyclo[2.2.1]heptan-2-yl)piperazin-1-yl)-3-fluorophenylamino)-5-methylpyrimidin-4-ylamino)benzyl)cyclopropanesulfonamide], half-maximal inhibition (IC50) required 371 nM.
Under `CN1CCN(c2ccc(Nc3ncc(C(F)(F)F)c(Nc4ccc(CNS(=O)(=O)C5CC5)cc4)n3)cc2)CC1` [II-127, N4-[4-(N-Cyclopropylsulfonylamino)methylphenyl]-N2-[4-(4-methyl-1-piperazinyl)phenyl]-5-trifluoromethyl-2,4-pyrimidinediamine] stands 338 nM.
Turning to `CCCOc1c(C)cc(Nc2ncc(Cl)c(Nc3ccc(CNS(=O)(=O)NC4CC4)cc3)n2)cc1C` [II-157, 5-Chloro-N4-[4-((N-cyclopropylamino)sulfonylamino)methylphenyl]-N2-(3,5-dimethyl-4-propoxyphenyl)-2,4-pyrimidinediamine], the IC50 turned out to be 138 nM.
For the compound `COc1cc(C)c(Nc2ncc(Cl)c(Nc3ccc(CCNS(=O)(=O)C4CC4)cc3)n2)c(C)c1` [II-46, 5-Chloro-N4[4-(N-cyclopropylsulfonylamino)ethylphenyl]-N2-[4-(2,6-dimethyl-methoxy)phenyl]-2,4-pyrimidinediamine], inhibition was half-maximal at 592 nM (IC50).
`COc1cc(Nc2ncc(F)c(Nc3ccc(CNS(=O)(=O)C4CC4)cc3)n2)cc(C)c1OC` [II-195, 5-Fluoro-N4-[4-(N-cyclopropylsulfonylamino)methylphenyl]-N2-[3,4-dimethoxy-5-methylphenyl]-2,4-pyrimidinediamine] registered an IC50 of 180 nM.
As to `COc1cc(Nc2ncc(Cl)c(Nc3ccc(CNS(=O)(=O)C4CC4)cc3)n2)cc(OC)c1OC` [II-186, 5-Chloro-N4-[4-(N-cyclopropylsulfonylaminomethyl)phenyl]-N2-[3,4,5-trimethoxyphenyl]-2,4-pyrimidinediamine], 128 nM corresponded to half-maximal inhibition (IC50).
The compound “5-Chloro-N4-[4-(N-cyclopropylsulfonylamino)methylphenyl]-N2-[4-[N-(methansulfonyl)piperizin-4-ylphenyl]-2,4-pyrimidinediamine [II-207]” had an IC50 of 384 nM.

The values above are taken from patent publication US8304422B2, “Compositions and methods for inhibition of the JAK pathway” (Rigel Pharmaceuticals, Inc., priority 2007, dated 2012).
